Laboratory results from patent US20240238423A9, “TETRAHYDROISOQUINOLINE HETEROBIFUNCTIONAL BCL-XL DEGRADERS” (Treeline Biosciences, Inc., priority 2022, published 2024).

Target: T1, Human BCL-XL protein (N-terminal HiBiT tagged BCL-XL in HT1080 cells) (Homo sapiens, UniProt Q07817)
T1 construct: expressed in transfected cells; host or cells: HT-1080 (ATCC CCL-121), stably transduced with lentivirus pLV-UBC-N-HiBiT-BCL-XL-PGK-puro and selected with puromycin
Test: HiBiT based degradation assay
Type: cell-based
Settings: HT1080 cells expressing HiBiT-BCL-XL, 24 h; for Ymin (24 h): BCL-XL degradation normalized with DMSO control; for DC50: BCL-XL degradation, read-out: EC50 (24 h)
How it was run: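 This HiBiT degradation assay measured loss of BCL-XL in HT1080 cells that stably express an N-terminal HiBiT-BCL-XL fusion delivered by lentivirus. Cells were added to compound-spotted 384-well plates, and luminescence was read on a PHERAstar FSX reader. Signal was expressed relative to DMSO controls, curves were fitted by four-parameter logistic regression, and for hook-shaped curves the Ymin point served as the bottom plateau when calculating EC50.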

T1 sequence (Q07817 whole entry): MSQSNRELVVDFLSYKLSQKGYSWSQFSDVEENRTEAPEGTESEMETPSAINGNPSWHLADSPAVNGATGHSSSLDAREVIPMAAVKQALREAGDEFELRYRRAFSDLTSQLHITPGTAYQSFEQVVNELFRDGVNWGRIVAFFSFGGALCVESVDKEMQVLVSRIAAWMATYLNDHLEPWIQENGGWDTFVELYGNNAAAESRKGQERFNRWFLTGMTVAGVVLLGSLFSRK

SMILES | Ymin (24 h) | DC50
Cc1c(OCCCC2CCN(CCN3CCC(c4cccc5c(C6CCC(=O)NC6=O)nn(C)c45)CC3)CC2)cccc1-c1ccc(N2CCc3cccc(C(=O)Nc4nc5ccccc5s4)c3C2)nc1C(=O)O (stereo not drawn) [Compound 256, 6-[8-(1,3-benzothiazol-2-ylcarbamoyl)-3,4-dihydro-1H-isoquinolin-2-yl]-3-[3-[3-[1-[2-[4-[3-(2,6-dioxo-3-piperidyl)-1-methyl-indazol-7-yl]-1-piperidyl]ethyl]-4-piperidyl]propoxy]-2-methyl-phenyl]pyridine-2-carboxylic acid] | A (Ymin < 50%) | < 100 nM
Cc1c(OCCCCC2CCN(CC3CCN(c4ccc5c(C6CCC(=O)NC6=O)nn(C)c5c4)CC3)CC2)cccc1-c1ccc(N2CCc3cccc(C(=O)Nc4nc5ccccc5s4)c3C2)nc1C(=O)O (stereo not drawn) [Compound 257, 6-[8-(1,3-benzothiazol-2-ylcarbamoyl)-3,4-dihydro-1H-isoquinolin-2-yl]-3-[3-[4-[1-[[1-[3-(2,6-dioxo-3-piperidyl)-1-methyl-indazol-6-yl]-4-piperidyl]methyl]-4-piperidyl]butoxy]-2-methyl-phenyl]pyridine-2-carboxylic acid] | A (Ymin < 50%) | < 100 nM
Cc1c(OCCC2CCN(CC3CCN(c4ccc5c(C6CCC(=O)NC6=O)nn(C)c5c4)CC3)CC2)cccc1-c1ccc(N2CCc3cccc(C(=O)Nc4nc5ccccc5s4)c3C2)nc1C(=O)O (stereo not drawn) [Compound 258, 6-[8-(1,3-benzothiazol-2-ylcarbamoyl)-3,4-dihydro-1H-isoquinolin-2-yl]-3-[3-[2-[1-[[1-[3-(2,6-dioxo-3-piperidyl)-1-methyl-indazol-6-yl]-4-piperidyl]methyl]-4-piperidyl]ethoxy]-2-methyl-phenyl]pyridine-2-carboxylic acid] | A (Ymin < 50%) | < 100 nM
Cc1c(O[C@H]2CC[C@H](CCC(=O)N3CCC(c4ccc5c(C6CCC(=O)NC6=O)nn(C)c5c4)CC3)CC2)cccc1-c1ccc(N2CCc3cccc(C(=O)Nc4nc5ccccc5s4)c3C2)nc1C(=O)O (stereo partly drawn) [Compound 259a, 6-(8-(benzo[d]thiazol-2-ylcarbamoyl)-3,4-dihydroisoquinolin-2(1H)-yl)-3-(3-(((1r,4r)-4-(3-(4-(3-(2,6-dioxopiperidin-3-yl)-1-methyl-1H-indazol-6-yl)piperidin-1-yl)-3-oxopropyl)cyclohexyl)oxy)-2-methylphenyl)picolinic acid] | A (Ymin < 50%) | < 100 nM
Cc1c(OCCCN2CCN(CC3CCC4(CC3)CN(c3cccc5c(C6CCC(=O)NC6=O)nn(C)c35)C4)CC2)cccc1-c1ccc(N2CCc3cccc(C(=O)Nc4nc5ccccc5s4)c3C2)nc1C(=O)O (stereo not drawn) [Compound 260, 6-(8-(benzo[d]thiazol-2-ylcarbamoyl)-3,4-dihydroisoquinolin-2(1H)-yl)-3-(3-(3-(4-((2-(3-(2,6-dioxopiperidin-3-yl)-1-methyl-1H-indazol-7-yl)-2-azaspiro[3.5]nonan-7-yl)methyl)piperazin-1-yl)propoxy)-2-methylphenyl)picolinic acid] | A (Ymin < 50%) | < 100 nM
Cc1c(OCCC2CCN(CC3CCN(c4cccc5c(C6CCC(=O)NC6=O)nn(C)c45)CC3)CC2)cccc1-c1ccc(N2CCc3cccc(C(=O)Nc4nc5ccccc5s4)c3C2)nc1C(=O)O (stereo not drawn) [Compound 261, 6-[8-(1,3-benzothiazol-2-ylcarbamoyl)-3,4-dihydro-1H-isoquinolin-2-yl]-3-[3-[2-[1-[[1-[3-(2,6-dioxo-3-piperidyl)-1-methyl-indazol-7-yl]-4-piperidyl]methyl]-4-piperidyl]ethoxy]-2-methyl-phenyl]pyridine-2-carboxylic acid] | A (Ymin < 50%) | < 100 nM
Cc1cc(OCCCC2(C)CCN(CC(=O)Nc3ccc4c(C5CCC(=O)NC5=O)nn(C)c4c3)CC2)ccc1-c1ccc(N2CCc3cccc(C(=O)Nc4nc5ccccc5s4)c3C2)nc1C(=O)O (stereo not drawn) [Compound 264, 6-[8-(1,3-benzothiazol-2-ylcarbamoyl)-3,4-dihydro-1H-isoquinolin-2-yl]-3-[4-[3-[1-[2-[[3-(2,6-dioxo-3-piperidyl)-1-methyl-indazol-6-yl]amino]-2-oxo-ethyl]-4-methyl-4-piperidyl]propoxy]-2-methyl-phenyl]pyridine-2-carboxylic acid] | A (Ymin < 50%) | < 100 nM
Cc1cc(OCC2CC3(CCN(CC(=O)Nc4ccc5c(C6CCC(=O)NC6=O)nn(C)c5c4)CC3)C2)ccc1-c1ccc(N2CCc3cccc(C(=O)Nc4nc5ccccc5s4)c3C2)nc1C(=O)O (stereo not drawn) [Compound 265, 6-(8-(benzo[d]thiazol-2-ylcarbamoyl)-3,4-dihydroisoquinolin-2(1H)-yl)-3-(4-((7-(2-((3-(2,6-dioxopiperidin-3-yl)-1-methyl-1H-indazol-6-yl)amino)-2-oxoethyl)-7-azaspiro[3.5]nonan-2-yl)methoxy)-2-methylphenyl)picolinic acid] | A (Ymin < 50%) | < 100 nM
Cc1c(OCCCC2(C)CCN(CC(=O)Nc3ccc4c(C5CCC(=O)NC5=O)nn(C)c4c3)CC2)cccc1-c1ccc(N2CCc3cccc(C(=O)Nc4nc5ccccc5s4)c3C2)nc1C(=O)O (stereo not drawn) [Compound 267, 6-[8-(1,3-benzothiazol-2-ylcarbamoyl)-3,4-dihydro-1H-isoquinolin-2-yl]-3-[3-[3-[1-[2-[[3-(2,6-dioxo-3-piperidyl)-1-methyl-indazol-6-yl]amino]-2-oxo-ethyl]-4-methyl-4-piperidyl]propoxy]-2-methyl-phenyl]pyridine-2-carboxylic acid] | A (Ymin < 50%) | < 100 nM
Cc1c(O[C@H]2CC[C@H](CCCN3CCC(c4ccc5c(C6CCC(=O)NC6=O)nn(C)c5c4)CC3)CC2)cccc1-c1ccc(N2CCc3cccc(C(=O)Nc4nc5ccccc5s4)c3C2)nc1C(=O)O (stereo partly drawn) [Compound 269a, 6-(8-(benzo[d]thiazol-2-ylcarbamoyl)-3,4-dihydroisoquinolin-2(1H)-yl)-3-(3-(((1s,4r)-4-(3-(4-(3-(2,6-dioxopiperidin-3-yl)-1-methyl-1H-indazol-6-yl)piperidin-1-yl)propyl)cyclohexyl)oxy)-2-methylphenyl)picolinic acid] | A (Ymin < 50%) | < 100 nM
Cc1c(O[C@H]2CC[C@H](CCCN3CCC(c4cccc5c(C6CCC(=O)NC6=O)nn(C)c45)CC3)CC2)cccc1-c1ccc(N2CCc3cccc(C(=O)Nc4nc5ccccc5s4)c3C2)nc1C(=O)O (stereo partly drawn) [Compound 270a, 6-(8-(benzo[d]thiazol-2-ylcarbamoyl)-3,4-dihydroisoquinolin-2(1H)-yl)-3-(3-(((1s,4r)-4-(3-(4-(3-(2,6-dioxopiperidin-3-yl)-1-methyl-1H-indazol-7-yl)piperidin-1-yl)propyl)cyclohexyl)oxy)-2-methylphenyl)picolinic acid] | A (Ymin < 50%) | < 100 nM
Cc1c(O[C@H]2CC[C@H](CCCN3CCN(c4ccc5c(C6CCC(=O)NC6=O)nn(C)c5c4)C[C@H]3C)CC2)cccc1-c1ccc(N2CCc3cccc(C(=O)Nc4nc5ccccc5s4)c3C2)nc1C(=O)O (stereo partly drawn) [Compound 273a, 6-(8-(benzo[d]thiazol-2-ylcarbamoyl)-3,4-dihydroisoquinolin-2(1H)-yl)-3-(3-(((1S,4r)-4-(3-((2R)-4-(3-(2,6-dioxopiperidin-3-yl)-1-methyl-1H-indazol-6-yl)-2-methylpiperazin-1-yl)propyl)cyclohexyl)oxy)-2-methylphenyl)picolinic acid] | A (Ymin < 50%) | < 100 nM
Cc1c(O[C@H]2CC[C@H](CCCN3CCN(c4ccc5c(C6CCC(=O)NC6=O)nn(C)c5c4)C[C@@H]3C)CC2)cccc1-c1ccc(N2CCc3cccc(C(=O)Nc4nc5ccccc5s4)c3C2)nc1C(=O)O (stereo partly drawn) [Compound 273b, 6-(8-(benzo[d]thiazol-2-ylcarbamoyl)-3,4-dihydroisoquinolin-2(1H)-yl)-3-(3-(((1R,4r)-4-(3-((2S)-4-(3-(2,6-dioxopiperidin-3-yl)-1-methyl-1H-indazol-6-yl)-2-methylpiperazin-1-yl)propyl)cyclohexyl)oxy)-2-methylphenyl)picolinic acid] | A (Ymin < 50%) | < 100 nM
Cc1c(O[C@H]2CC[C@H](CCCN3CCN(c4cccc5c(C6CCC(=O)NC6=O)nn(C)c45)[C@H](C)C3)CC2)cccc1-c1ccc(N2CCc3cccc(C(=O)Nc4nc5ccccc5s4)c3C2)nc1C(=O)O (stereo partly drawn) [Compound 274a, 6-(8-(benzo[d]thiazol-2-ylcarbamoyl)-3,4-dihydroisoquinolin-2(1H)-yl)-3-(3-(((1S,4r)-4-(3-((3R)-4-(3-(2,6-dioxopiperidin-3-yl)-1-methyl-1H-indazol-7-yl)-3-methylpiperazin-1-yl)propyl)cyclohexyl)oxy)-2-methylphenyl)picolinic acid] | A (Ymin < 50%) | < 100 nM
Cc1c(O[C@H]2CC[C@H](CCCN3CCN(c4cccc5c(C6CCC(=O)NC6=O)nn(C)c45)[C@@H](C)C3)CC2)cccc1-c1ccc(N2CCc3cccc(C(=O)Nc4nc5ccccc5s4)c3C2)nc1C(=O)O (stereo partly drawn) [Compound 274b, 6-(8-(benzo[d]thiazol-2-ylcarbamoyl)-3,4-dihydroisoquinolin-2(1H)-yl)-3-(3-(((1R,4r)-4-(3-((3S)-4-(3-(2,6-dioxopiperidin-3-yl)-1-methyl-1H-indazol-7-yl)-3-methylpiperazin-1-yl)propyl)cyclohexyl)oxy)-2-methylphenyl)picolinic acid] | A (Ymin < 50%) | < 100 nM
